Results published in patent publication US9173923B2, “Modulating innate immune cell activity by lunasin and selected cytokines” (Indiana University Research & Technology Corporation, priority 2011, dated 2015).

Assays:
[1] = boiling; cited from earlier work
allergic inflammation = test: LPS-induced asthma mouse model; assay type: in vivo, BABL/c mice
Method: FIG. 25 Lunasin-treated mice have reduced allergic inflammation in a mouse model of asthma. In LPS-induced asthma model BABL/c mice were sensitized intranasally with 0.1 μg of LPS at day 0, 1, and 2 with (LS) or without (Ctrl) lunasin peptide at 4 mg, and then challenged with 50 μg of OVA on days 19, 20 and 21. Another group of mice (LC) was sensitized as the Ctrl group followed by challenging with OVA in the presence of lunasin at 4mg. The total cell numbers (A) and differential cell numbers of eosinophils (B) were counted from the BAL fluid. Data are presented as mean±SD from 3 mice in each group. *,P<0.05; ns not-significant p>0.05. (C) Cells from draining lympho nodes (mediastinal) were stimulated with OVA, and the levels of IL-4 production in the supernatants were evaluated using ELISA. Data are presented as mean ±SD from 3 mice in each group. ***, P<0.005; ns, not-significant, p>0.05.
In LPS-induced asthma model, BABL/c mice were sensitized intranasally with 0.1 μg of LPS at day 0, 1, and 2 with (LS) or without (Ctrl) lunasin peptide at 4 mg, and then challenged with 50 ug of OVA on days 19, 20, and 21. […] The total cell numbers (A) and differential cell numbers of eosinophils (B) were counted from the BAL fluid. […] (C) Cells from draining lympho nodes (mediastinal) were stimulated with OVA, and the levels of IL-4 production in the supernatants were evaluated using ELISA. […]

human primary NK cells [2] = test: Gene expression by primary NK cells (real time qPCR, Taqman Assay); assay type: cell-based
Text: FIG. 3 Synergistic effects of lunasin and cytokines on gene expression by human primary NK cells. […] One day following the stimulation, the cell pellets were resuspended in Trizol Reagents for total RNA extraction. The first-strand cDNA was synthesized followed by real time qPCR using Taqman Assay with primers for IFNγ(IFNG), granzyme B (GZMB), granulysin (GNLY), chemokine (C-C motif) ligand 3 or CCL3 (CCL3), CCL4 (CCL4). Granulocyte-macrophage colony-stimulating factor or GM-CSF (CSF2) TGFβ (TGFB) and TGFβ receptor (TGFBR2) in ABI 7300 (Applied Biosystems by Life Technologies, Carlsbad CA) Data are presented as mean±SD from 2 duplicates. Results shown are representative over 5 different normal controls. […]
One day following the stimulation, the cell pellets were resuspended in Trizol Reagents for total RNA extraction. The first-strand cDNA was synthesized followed by real time qPCR using Taqman Assay with primers for IFNγ (IFNG), granzyme B (GZMB), granulysin (GNLY), chemokine (C-C motif) ligand 3 or CCL3 (CCL3), CCL4 (CCL4), Granulocyte-macrophage colony-stimulating factor or GM-CSF (CSF2), TGFβ (TGFB) and TGFβ receptor (TGFBR2) in ABI 7300 (Applied Biosystems by Life Technologies, Carlsbad, Calif.). Data are presented as mean±SD from duplicates. Results shown are representative over 5 different normal controls.
Following 1, 2, and 3 days of stimulation, the cell pellets were lysed in Trizol Reagents for total RNA extraction. The first-strand cDNA was synthesized followed by real time qPCR using Taqman Assay with primer for TGFB1 and TGFBR2 in ABI 7300. Results are presented as mean±SD from duplicates. […]
Freshly isolated human NK cells from peripheral blood mononuclear cells (PBMCs) of normal control using positive selection with CD56 magnetic beads (Miltenyi Biotec, Auburn, Calif.) were stimulated with medium only (−), IL-12 (10 ng/ml) or IL-12 (10 ng/ml)+lunasin (5 μM) for 1 day. The cell pellets were lysed in Trizol Reagents for total RNA extraction. The first-strand cDNA was synthesized followed by real time qPCR using Taqman Assay with primer for inhibitory receptors KIR3DL1 (upper panel) and KIR3DL2 (lower panel) in ABI 7300.

human primary NK cells [3] = test: IFNγ production in supernatants of purified NK cells (ELISA); assay type: cell-based; details: 1 day
Method: (§1) FIG. 1 IFNγ production by primary NK cells following stimulation. Human primary NK cells were isolated from peripheral blood mononuclear cells (PBMCs) of normal controls using positive selection with CD56 magnetic beads (Miltenyi Biotec Auburn. CA). […] At the last 6 hrs of stimulation, golgistop (monensin) was added to block the secretion of IFNγ. Stimulated PBMCs were surface stained with FITC-conjugated CD3 and PE-congugated CD56 monoclonal antibodies (BD), washed, fixed, and permeabilized. After washing, cells were incubated with APC-conjugated anti IFNγ monoclonal antibody. Expression of IFNγ was evaluated on 5000 events of gated CD3 negative and CD56 positive NK cell populations. The % of NK populations producing IFNγ is labeled at the upper right quadrant of the dot plot. (B) IFNγ production in the supernatants. […] The cell pellets from (B) were analyzed for gene expression using qPCR with Taqman Assay primers. […]
FIG. 7 Dose-dependent effects of lunasin on IFNγ production, Human NK cells isolated as described in FIG. 1 were stimulated with IL-12 at 1 or 10 ng/ml in the absence (A) or presence (B) of various concentrations of lunasin. One day following stimulation, The production of IFNg in the supernatants was determined using ELISA. […]
One day following stimulation. The production of IFNg in the supernatants was determined using ELISA. […]

[4] = cited from earlier work
[5] = tested on: peripheral blood mononuclear cells (PBMCs); CD3 negative and CD56 positive NK cell populations; test: Intracellular cytokine staining of IFNγ in stimulated PBMCs of normal controls (flow cytometry); assay type: cell-based, human; details: 1 day
Method: as §1
Following 1 day of stimulation, distinct cell populations that respond to stimulation were evaluated using intracellular cytokine staining for IFNγ production. […]
Aliquots of PBMCs isolated from healthy volunteer donors were cryopreserved in liquid nitrogen for the following assays. […] Expression of IFNγ was evaluated on 5000 events of gated CD3 negative and CD56 positive NK cell populations. […] The cell pellets were analyzed for gene expression using qPCR with Taqman Assay primers. […]

[6] = tested on: NK cells isolated from lungs; test: Ifng gene expression in lung NK cells of mice gavaged with lunasin; assay type: in vivo, Balb/c mice; details: 4 mg lunasin by gavage for 3 consecutive days
Method: FIG 24 Gene expression of Ifng from mice treated with lunasin. Balb/c mice were gavaged with […] of water only (H2O) or 4 mg of lunasin in […] water (Lunasin) for 3 consecutive days. One day after the last gavage. mice were sacrificed to collect the lungs. NK cells were isolated from lungs of each mouse using positive selection with DX5 magnetic beads (Miltenyi Biotec) followed by RNA extraction, cDNA synthesis and real time qPCR using Taqman assay primers (ABI). Gene expression for IFNg (Ifng) from lungs is presented as mean±SD from 2 mice in each group.
Balb/c mice were gavaged with 200 μl of water only (H2O) or 4 mg of lunasin in 200 μl water (Lunasin) for 3 consecutive days. One day after the last gavage, mice were sacrificed to collect the lungs and spleens. NK cells were isolated from each lung and spleen using positive selection with DX5 magnetic beads (Miltenyi Biotec) followed by RNA extraction, cDNA synthesis and real tune qPCR using Taqman assay primers (ABE). Gene expression for Ifng from lungs (upper panel) and spleens (lower pannel) is presented as mean±SD from 2 mice in each group.

[7] = tested on: acetylation of histone H3 and H4; details: extracted from autoclaved soybean products or blood of rats fed LES; cited from earlier work
mouse NK cells = test: IFNγ produced by NK cells from tumor-bearing mice with or without etoposide chemotherapy (ELISA); assay type: cell-based; details: reduced Stat4; mouse IL-12 2 ng/ml or human IL-2 50 units/ml, lunasin 20 μM; 1 day
Method: Mouse NK cells were positively selected from spleens of tumor-bearing mice with (+Eto) or without (−Eto) chemotherapeutic drug etoposide. Isolated NK cells were stimulated with mouse IL-12 at 2 ng/ml with (+) or without (−) lunasin peptide (A) or human IL-2 at 50 units/ml with (+) or without (−) lunasin at 20 μM (B). The production of IFNγ in the supernatant after 1 day of stimulation was determined using ELISA. Results are presented as mean±SD from 3 mice. ND is not detectable.

lunasin
heat stability [1]: heat-stable | production of IL-4 (allergic inflammation; draining lymph node cells stimulated with OVA, ELISA): reduced production of IL-4 | cell counts in the bronchoalveolar lavage (BAL) fluid (allergic inflammation; lunasin 4 mg intranasal): lower cell counts | CCL3 gene expression (human primary NK cells [2]; 1 day): sufficient to up-regulate | CCL4 gene expression (human primary NK cells [2]; 1 day): sufficient to up-regulate | CSF2 (GM-CSF) gene expression (human primary NK cells [2]; 1 day): sufficient to up-regulate | GMT gene expression (human primary NK cells [2]; 1 day, lunasin alone): no effects | IFNG gene expression (human primary NK cells [2]; human cells, qPCR): moderate effects | production of IFNγ in the supernatants (human primary NK cells [3]): moderate effects | distribution of gavaged lunasin ([4]; gavage): can be found in the lung and blood | lunasin levels in the blood after oral consumption ([4]; oral): Significant levels of lunasin could be detected in the blood | survival of digestion in the gastrointestinal tract ([4]; oral): survives digestion in the gastrointestinal tract | IFNγ intracellular staining by cell population (NK, CD4 and CD8 T) [5]: NK but not CD4 or CD8 T populations respond | gene expression of Ifng in the lung [6]: increased gene expression of Ifng | bioactivity after autoclaving or feeding (inhibiting acetylation of histone H3 and H4) [7]: still active

B1: IL-12 (protein, UniProt P43431 23-215; P43432 23-335, looked up)
Interleukin-12 subunit alpha: RVIPVSGPARCLSQSRNLLKTTDDMVKTAREKLKHYSCTAEDIDHEDITRDQTSTLKTCLPLELHKNESCLATRETSSTTRGSCLPPQKTSLMMTLCLGSIYEDLKMYQTEFQAINAALQNHNHQQIILDKGMLVAIDELMQSLNHNGETLRQKPPVGEADPYRVKMKLCILLHAFSTRVVTINRVMGYLSSA
Interleukin-12 subunit beta: MWELEKDVYVVEVDWTPDAPGETVNLTCDTPEEDDITWTSDQRHGVIGSGKTLTITVKEFLDAGQYTCHKGGETLSHSHLLLHKKENGIWSTEILKNFKNKTFLKCEAPNYSGRFTCSWLVQRNMDLKFNIKSSSSSPDSRAVTCGMASLSAEKVTLDQRDYEKYSVSCQEDVTCPTAEETLPIELALEARQQNKYENYSTSFFIRDIIKPDPPKNLQMKPLKNSQVEVSWEYPDSWSTPHSYFSLKFFVRIQRKKEKMKETEEGCNQKGAFLVEKTSTEVQCKGGNVCVQAQDRYYNSSCSKWACVPCRVRS
GZMB (granzyme B) gene expression (human primary NK cells [2]; 1 day, lunasin 20 μM, compared to cytokine alone): no further induction of GZMB | IFNγ production by NK cells from tumor-bearing mice following chemotherapy (+etoposide) (mouse NK cells): secreted less IFNγ
